Experimental data as given in publication PMC8781304, “Arene-Ruthenium(II) Complexes with Carbothiamidopyrazoles as a Potential Alternative for Antibiotic Resistance in Human” (Molecules, 2022).

Assays:
[1] = test system: S. epidermidis ATCC 12228; test: Cell lysis (bacteriolysis, OD600); assay type: cell-based, Staphylococcus epidermidis; conditions: 1 × MBC
[2] = test system: Supercoiled plasmid pUC57 DNA; test: Cleavage of pUC57 DNA, agarose gel electrophoresis; assay type: biochemical; conditions: pUC57, 100, 200 and 300 µM
Procedure: DNA supercoiling plays a key role in gene expression and genome organization. The agarose gel electrophoresis assay was used to check whether the tested complexes 3a–3c are able to cleave DNA. Supercoiled plasmid pUC57 DNA (4634 bp); Thermo Scientific, ABO Sp. z o.o., Gdansk, Poland), was incubated with tested compounds (100, 200 and 300 µM). Next, loading buffer (1 μL) containing […] bromophenol blue, 0.25% xylene cyanol and 30% glycerol was added to allow the samples to be loaded into 1% w/v agarose gel. Electrophoresis was performed at 75 V in Tris-acetate- EDTA (TAE) buffer. The gel was stained using Midori green advance DNA stain (Genetics, ABO Sp. z o.o., Gdansk, Poland), and visualised under UV light with the BioRad Gel Doc 2000 system using LABWORK software (Hercules, California, USA). All experiments were carried out in triplicate under the same conditions.

[3] = test system: S. epidermidis ATCC 12228; test: Synergy with oxacillin and vancomycin, partial checkerboard broth microdilution; assay type: cell-based, Staphylococcus epidermidis; conditions: S. epidermidis ATCC 12228; for FIC (Oxa) / FIC (Van): MIC antibiotic in combination/MIC antibiotic alone; for MIC Oxa in Combination: oxacillin with the complex at ½ MIC (NH4PF6 250 µg/mL); for MIC Van in Combination: vancomycin with the complex at ½ MIC (NH4PF6 250 µg/mL)

Row | Molecule | Cell lysis, change of OD600 [1] | Cleavage of plasmid DNA, in words [2] | FIC (Oxa) [3] | FIC (Van) [3] | MIC Oxa in Combination [3] [µg/mL] | MIC Van in Combination [3] [µg/mL] | Correlation with Oxa and Van (synergy), in words [3]
1 | Cc1cc(C)[n+]2n1C(N)=[S+][Ru-]2[Cl].Cc1ccc(C(C)C)cc1.F[P-](F)(F)(F)(F)F [Compound 3a] | not found to change OD600 values | did not affect DNA structure | 0.06 | 0.03 | 0.015 | 0.015 | –
2 | CCc1cc(CC)[n+]2n1C(N)=[S+][Ru-]2[Cl].Cc1ccc(C(C)C)cc1.F[P-](F)(F)(F)(F)F [Compound 3b] | not found to change OD600 values | able to cut plasmid DNA | 0.06 | 0.03 | 0.015 | 0.015 | synergistic effect in all tested configurations
3 | [(η^6-p-cymene)Ru(1-[amino(thioxo)methyl]-5-hydroxy-3-phenyl-1H-pyrazole)PF6 [Compound 3c] | quite moderate decrease in OD600 | able to cut plasmid DNA | 0.06 | 0.03 | 0.015 | 0.015 | –
